Patent US20030125343A1, “Combinations of receptor tyrosine kinase inhibitor with an a1-acidic glycoprotein binding compound” (priority 1999, published 2003)

How the values were obtained:
KU812 leukemic cells = assay: In vivo treatment of nude mice injected s.c. with KU812 leukemic cells; design: species or system CD1 nu/nu mice
Method: Seven to 9 week-old female CD1 nu/nu mice purchased at Charles River Breedin Laboratories (Calco, Italy) are kept under standard laboratory conditions according to the guidelines of the National Cancer Institutes, Milan, Italy. This study is approved by the institutional ethics committee for laboratory animals used in experimental research. KU812 bcr/abl positive cell line is injected (50×10^6 cells per animal) subcutaneously in the left flank of the animal. Oral treatment is administered through a syringe connected to a soft plastic tube introduced in esophagus (gavage). Tumor weight (TW) and total weight are monitored every 3-4 days. TW is calculated by the formula TW [mg]=(d^2×D), where d and D are the shortest and longest diameters of the tumor, respectively, measured in millimeters. Treatment is started 1-15 days after leukemic cell injection.
Nude mice are injected s.c. with 50 millions KU812 cells. Treatment is initiated after 1, 8 and 15 days respectively (groups I to III), in the presence of approximately, 50, 300 millions and 1 billion leukemic cells. […] To test this hypothesis mice in group II are treated for 11 or 18 days.
Mice are injected with KU812 cells and treatment is started 11 days later in the presence of an approximate tumor load of 400 mg.

bcr/abl = molecular target: T1, bcr/abl (Homo sapiens, UniProt P00519); assay: In vitro bcr/abl autophosphorylation in KU812 cells (anti-phosphotyrosine western blot); assay type: cell-based; conditions: erythromycin base 100 μM, STI571 3 μM, AGP 2 mg/ml, 1 hour
T1 construct: Endogenous bcr/abl and tyrosine-phosphorylated bcr/abl are detected with the corresponding mouse monoclonal antibody; BCR N-terminal portion (fusion partner, human BCR P11274); endogenous in cells; host or cells: KU812 (DSMZ ACC 378), in culture or as subcutaneous tumour in CD1 nu/nu mice; the other entry of the earlier key: BCR (P11274, Breakpoint cluster region protein)
T1 sequence (P00519 with tags, fused parts or gaps): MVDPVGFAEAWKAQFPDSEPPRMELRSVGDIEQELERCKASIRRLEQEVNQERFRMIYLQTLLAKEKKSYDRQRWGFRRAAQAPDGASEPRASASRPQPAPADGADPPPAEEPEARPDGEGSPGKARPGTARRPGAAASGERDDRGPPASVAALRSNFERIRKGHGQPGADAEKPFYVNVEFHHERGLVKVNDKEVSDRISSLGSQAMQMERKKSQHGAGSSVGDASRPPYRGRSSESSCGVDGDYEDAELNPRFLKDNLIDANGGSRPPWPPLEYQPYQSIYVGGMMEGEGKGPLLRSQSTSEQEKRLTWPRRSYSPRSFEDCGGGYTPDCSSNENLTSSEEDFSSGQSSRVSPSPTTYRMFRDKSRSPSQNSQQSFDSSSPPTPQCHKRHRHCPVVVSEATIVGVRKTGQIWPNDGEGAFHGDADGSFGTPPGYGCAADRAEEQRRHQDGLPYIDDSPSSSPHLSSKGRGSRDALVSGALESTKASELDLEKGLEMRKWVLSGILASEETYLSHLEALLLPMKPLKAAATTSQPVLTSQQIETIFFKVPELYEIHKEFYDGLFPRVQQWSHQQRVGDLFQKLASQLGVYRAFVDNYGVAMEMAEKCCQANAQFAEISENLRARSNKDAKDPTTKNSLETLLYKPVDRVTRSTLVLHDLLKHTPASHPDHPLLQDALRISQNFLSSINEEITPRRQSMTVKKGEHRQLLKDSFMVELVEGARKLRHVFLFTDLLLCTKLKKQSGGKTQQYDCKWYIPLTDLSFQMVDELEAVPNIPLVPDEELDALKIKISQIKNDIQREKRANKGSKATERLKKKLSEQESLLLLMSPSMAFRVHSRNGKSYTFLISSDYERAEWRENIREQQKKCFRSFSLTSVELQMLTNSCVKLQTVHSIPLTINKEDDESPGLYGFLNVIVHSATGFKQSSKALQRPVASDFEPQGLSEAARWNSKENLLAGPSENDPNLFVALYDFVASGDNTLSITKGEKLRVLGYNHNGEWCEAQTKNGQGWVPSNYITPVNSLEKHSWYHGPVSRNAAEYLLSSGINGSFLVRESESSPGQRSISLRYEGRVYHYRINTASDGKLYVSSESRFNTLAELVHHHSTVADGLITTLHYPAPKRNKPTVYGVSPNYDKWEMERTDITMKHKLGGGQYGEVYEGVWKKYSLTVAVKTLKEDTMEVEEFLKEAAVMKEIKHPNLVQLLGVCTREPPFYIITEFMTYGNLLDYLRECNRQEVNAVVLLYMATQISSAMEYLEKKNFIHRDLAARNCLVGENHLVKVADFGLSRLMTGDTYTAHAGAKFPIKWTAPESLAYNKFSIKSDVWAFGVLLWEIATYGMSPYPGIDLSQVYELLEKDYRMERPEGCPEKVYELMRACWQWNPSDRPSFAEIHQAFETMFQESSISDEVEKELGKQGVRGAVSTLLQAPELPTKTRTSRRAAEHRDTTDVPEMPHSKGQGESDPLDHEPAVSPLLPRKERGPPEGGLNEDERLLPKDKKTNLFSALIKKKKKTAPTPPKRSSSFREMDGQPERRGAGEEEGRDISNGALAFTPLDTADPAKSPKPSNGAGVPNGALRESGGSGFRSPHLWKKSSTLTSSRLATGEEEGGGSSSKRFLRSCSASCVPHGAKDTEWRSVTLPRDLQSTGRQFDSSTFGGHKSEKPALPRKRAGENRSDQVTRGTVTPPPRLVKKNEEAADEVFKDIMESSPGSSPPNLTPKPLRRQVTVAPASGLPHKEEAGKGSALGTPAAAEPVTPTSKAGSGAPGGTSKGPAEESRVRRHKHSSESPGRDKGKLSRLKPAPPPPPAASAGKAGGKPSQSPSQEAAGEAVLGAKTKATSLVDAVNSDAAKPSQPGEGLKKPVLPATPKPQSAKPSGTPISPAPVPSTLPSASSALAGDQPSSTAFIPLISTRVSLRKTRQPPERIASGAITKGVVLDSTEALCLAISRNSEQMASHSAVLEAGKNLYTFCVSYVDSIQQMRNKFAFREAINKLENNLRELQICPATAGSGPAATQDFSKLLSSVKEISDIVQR

KU812 cells = assay: Tritiated thymidine uptake in vitro proliferation assay; conditions: erythromycin 5 to 30 μM, STI571 1 μM, AGP 1 mg/ml

Compound | Tumor regression, erythromycin alone (KU812 leukemic cells; control groups, erythromycin in methyl cellulose 5%, not shown) | Effect of erythromycin on STI571 block of bcr/abl kinase activity in presence of AGP (bcr/abl) | Effect of erythromycin on AGP-mediated block of STI571 activity on KU812 proliferation (KU812 cells) | Animals that developed tumor growth, non pretreated mice (KU812 leukemic cells; 160 mg/kg every 8 hours for 11 days starting 24 hours after cell injection) | Cure, group printed as 'group II' (KU812 leukemic cells; 160 mg/kg p.o. every 8 hours for 11 days, sentence follows the group II relapse rate) | Cured animals, controls not pretreated (KU812 leukemic cells; injected with KU812, treated with STI571 24 hours later) | Animals with tumor growth, pretreated mice (KU812 leukemic cells; pretreated with STI571, then 160 mg/kg every 8 hours for 11 days starting 24 hours after injection, p<0.05) | Cured animals, pretreated with STI571 (KU812 leukemic cells; pretreated, injected with KU812, treated 24 hours later, p<0.01 vs controls) | Response of relapsed tumors to re-treatment (KU812 leukemic cells; same 11 day regimen, started when tumors measurable again) | Cure, group I (KU812 leukemic cells; treatment started 1 day after cell injection, 160 mg/kg p.o. every 8 hours for 11 days) | Animals showing disappearance of the tumor / tumor free (KU812 leukemic cells; treatment started 11 days after injection, tumor load about 400 mg, every 8 hours for 18 days) | Number of animals that relapsed (KU812 leukemic cells; treatment started at day 11, 18 days of treatment, relapse between day 25 and 40) | Animals cured at last day of follow up (day 120) (KU812 leukemic cells; treatment started at day 11, tumor load about 400 mg, 18 days, p<0.01 between groups) | Cure of animals bearing large tumors (KU812 leukemic cells; tumors >400 mg at start of treatment)
CC[C@H]1OC(=O)[C@H](C)[C@@H](O[C@H]2C[C@@](C)(OC)[C@@H](O)[C@H](C)O2)[C@H](C)[C@@H](O[C@@H]2O[C@H](C)C[C@H](N(C)C)[C@H]2O)[C@](C)(O)C[C@@H](C)C(=O)[C@H](C)[C@@H](O)[C@]1(C)O [erythromycin, Erythromycin] | do not show any evidence of tumor regression | STI571 activity can be restored | restores sensitivity to STI571 with a clear dose response relationship | – | – | – | – | – | – | – | – | – | – | –
Cc1ccc(NC(=O)c2ccc(CN3CCN(C)CC3)cc2)cc1Nc1nccc(-c2cccnc2)n1 [STI571] | – | – | – | 0/14 | no cure is ever observed | 16/16 | 7/14 | 8/16 | respond poorly to the new treatment | reproducibly cured | 5/15 | 4 animals | 1/13 | no animal was cured
